The supplement of paper PMC10307832

Assays:
Assay in all cases: relative viability (nuclei count vs DMSO), 5 days (fraction); higher = more cells survive
Zosuquidar + Bortezomib = compound: O[C@@H](COc1cccc2ncccc12)CN1CCN([C@@H]2c3ccccc3[C@@H]3[C@H](c4ccccc42)C3(F)F)CC1 [Zosuquidar] + CC(C)C[C@H](NC(=O)[C@H](Cc1ccccc1)NC(=O)c1cnccn1)B(O)O [Bortezomib] (partner 0.002 µM)
Procedure, shortened: (§1)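 Medians of duplicate plates are given as relative viability. That measure is the nuclei count in treated wells divided by the count in vehicle wells. Counts were taken on 4× images of lung cancer cell lines in 1536-well plates, 5 days after pin-tool dosing the day after seeding with one drug alone or a fixed anchor-drug dose plus five library-drug doses (not always all listed) in √10 steps.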

[1] = compound: COc1cc2nccc(Oc3ccc(NC(=O)C4(C(=O)Nc5ccc(F)cc5)CC4)cc3)c2cc1OC [Cabozantinib] + Nc1ncn([C@H]2C[C@H](O)[C@@H](CO)O2)c(=O)n1 [Decitabine] (partner 2 µM)
Procedure, shortened: as §1

Kobe2602 + Luminespib = compound: C1=CC(=CC=C1NC(=S)NNC2=C(C=C(C=C2[N+](=O)[O-])C(F)(F)F)[N+](=O)[O-])F [Kobe2602] + CCNC(=O)c1noc(-c2cc(C(C)C)c(O)cc2O)c1-c1ccc(CN2CCOCC2)cc1 [Luminespib] (partner 0.01 µM)
Procedure, shortened: as §1

[2] = compound: COc1cc2nccc(Oc3ccc(NC(=O)C4(C(=O)Nc5ccc(F)cc5)CC4)cc3)c2cc1OC [Cabozantinib] + O=C(CCCCCCC(=O)Nc1ccccc1)NO [Vorinostat] (partner 1 µM)
Procedure, shortened: as §1

Row | Cell Line | relative viability (Zosuquidar + Bortezomib; first compound 0.01 µM) | relative viability (Zosuquidar + Bortezomib; first compound 0.03162 µM) | relative viability (Zosuquidar + Bortezomib; first compound 0.1 µM) | relative viability (Zosuquidar + Bortezomib; first compound 0.3162 µM) | relative viability (Zosuquidar + Bortezomib; first compound 1 µM) | relative viability ([1]; first compound 0.02 µM) | relative viability ([1]; first compound 0.06325 µM) | relative viability ([1]; first compound 0.2 µM) | relative viability ([1]; first compound 0.6325 µM) | relative viability ([1]; first compound 2 µM) | relative viability (Kobe2602 + Luminespib; first compound 0.2 µM) | relative viability (Kobe2602 + Luminespib; first compound 0.6325 µM) | relative viability (Kobe2602 + Luminespib; first compound 2 µM) | relative viability (Kobe2602 + Luminespib; first compound 6.325 µM) | relative viability (Kobe2602 + Luminespib; first compound 20 µM) | relative viability ([2]; first compound 0.02 µM) | relative viability ([2]; first compound 0.06325 µM) | relative viability ([2]; first compound 0.2 µM) | relative viability ([2]; first compound 0.6325 µM) | relative viability ([2]; first compound 2 µM)
1 | NCI-H1437 | 0.468 | 0.442 | 0.475 | 0.53 | 0.463 | 0.64 | 0.567 | 0.58 | 0.576 | 0.558 | 1.12 | 1.11 | 1.1 | 1.14 | 0.984 | 0.931 | 0.984 | 0.925 | 0.809 | 0.715
2 | NCI-H1650 | 0.227 | 0.226 | 0.206 | 0.219 | 0.222 | 0.386 | 0.401 | 0.365 | 0.514 | 0.548 | 0.188 | 0.185 | 0.177 | 0.211 | 0.178 | 0.655 | 0.643 | 0.519 | 0.586 | 0.543
3 | NCI-H1651 | 0.928 | 0.984 | 0.882 | 0.91 | 0.866 | 0.465 | 0.743 | 0.565 | 0.616 | 0.599 | 0.673 | 0.911 | 0.642 | 0.758 | 0.93 | 0.511 | 0.709 | 0.533 | 0.571 | 0.622
4 | NCI-H1666 | 1 | 0.905 | 0.714 | 1.15 | 0.798 | 0.649 | 0.754 | 0.712 | 0.711 | 0.752 | 0.975 | 1.08 | 1 | 1.05 | 1.08 | 1.09 | 1.1 | 1.02 | 1.04 | 0.95
5 | NCI-H1734 | 0.771 | 0.959 | 0.918 | 0.997 | 1.06 | 0.545 | 0.53 | 0.523 | 0.508 | 0.53 | 0.196 | 0.175 | 0.167 | 0.187 | 0.173 | 0.703 | 1.01 | 0.847 | 0.886 | 0.792
6 | NCI-H1755 | 0.923 | 0.873 | 0.901 | 1.12 | 0.934 | 0.729 | 0.73 | 0.757 | 0.717 | 0.742 | 0.334 | 0.425 | 0.414 | 0.395 | 0.322 | 0.765 | 0.792 | 0.83 | 0.739 | 0.705
7 | NCI-H1915 | 1 | 0.995 | 1 | 1.01 | 1 | 0.262 | 0.264 | 0.253 | 0.248 | 0.256 | 0.778 | 0.875 | 0.783 | 0.852 | 0.693 | 0.525 | 0.548 | 0.511 | 0.522 | 0.473
8 | NCI-H1975 | 0.362 | 0.34 | 0.425 | 0.437 | 0.341 | 0.406 | 0.399 | 0.412 | 0.418 | 0.327 | 0.365 | 0.29 | 0.229 | 0.216 | 0.288 | 0.754 | 0.833 | 0.773 | 0.728 | 0.651
9 | NCI-H1993 | 1.02 | 0.99 | 1.08 | 1.17 | 1.11 | 0.71 | 0.681 | 0.519 | 0.576 | 0.458 | 0.673 | 0.794 | 0.605 | 0.658 | 0.769 | 0.553 | 0.723 | 0.63 | 0.64 | 0.831
10 | NCI-H2009 | 0.98 | 0.917 | 0.737 | 1.16 | 0.966 | 0.305 | 0.384 | 0.447 | 0.394 | 0.405 | 1.04 | 1.1 | 1.07 | 1.09 | 0.964 | 0.701 | 0.855 | 0.744 | 0.809 | 0.748
11 | NCI-H2023 | 0.93 | 0.939 | 0.878 | 1.4 | 1.06 | 0.261 | 0.235 | 0.239 | 0.234 | 0.24 | 0.596 | 0.783 | 0.759 | 0.528 | 0.156 | 0.608 | 0.623 | 0.599 | 0.648 | 0.594
12 | NCI-H2085 | 1.11 | 0.987 | 0.852 | 1.1 | 1.06 | 0.583 | 0.549 | 0.58 | 0.626 | 0.642 | 0.393 | 0.466 | – | 0.478 | 0.436 | 0.851 | 0.92 | 0.725 | 0.797 | 0.74
13 | NCI-H2087 | 0.849 | 0.701 | 0.94 | 0.923 | 0.85 | 0.311 | 0.279 | 0.303 | 0.306 | 0.212 | 0.226 | 0.153 | 0.174 | 0.143 | 0.153 | 0.752 | 0.781 | 0.563 | 0.49 | 0.715
14 | NCI-H2126 | 1.12 | 1.04 | 1.01 | 1.19 | 1.09 | 0.531 | 0.546 | 0.618 | 0.643 | 0.59 | 0.947 | 0.976 | 0.895 | 0.884 | 0.825 | 0.471 | 0.773 | 0.777 | 0.784 | 0.798
15 | NCI-H2347 | 1.2 | 0.979 | 1.04 | 1.22 | 0.6 | 0.66 | 0.667 | 0.601 | 0.609 | 0.516 | 0.454 | 0.369 | 0.793 | – | 0.756 | 0.525 | 0.525 | 0.627 | 0.469 | 0.391
16 | NCI-H2405 | 0.931 | 0.974 | 0.861 | 1.02 | 0.959 | 0.725 | 0.788 | 0.77 | 0.752 | 0.764 | 0.674 | 0.694 | 0.73 | 0.771 | 0.719 | 0.846 | 1.25 | 1.01 | 0.986 | 1.07
